In one assay the test system is CT26 tumor. Description: Tumor growth inhibition test in CT26 tumor-bearing mice. Format: in vivo. To be noted: αPD-1 5 mg/kg i.p. every 3 days x3.
The next assay deals with exosomal PD-L1. Description: Exosomal PD-L1 in plasma of CT26 tumor-bearing mice (ELISA). Format: in vivo. To be noted: SFX 200 mg/kg, αPD-1 5 mg/kg, FIG. 4C.
The test system of a further assay is CT26 cells. Description: Ability of PDC to inhibit exosome secretion in CT26 cells (NTA). The assay is classed as cell-based, murine. Also noted: dose or concentration left out as unconfirmed. To be noted: FIG. 14. How it is done:
To evaluate the ability of PEG-b-Poly(L-lysine-CDM-SFX) to inhibit the secretion of exosomes, CT26 cells, a murine colon cancer cell line, were treated with 100 µM of SFX and the same amount of PDC, exosomes from the supernatant were separated, and secreted exosomes were quantitatively analyzed.
In addition, to evaluate the ability of PEG-SS-AMB to inhibit the secretion of exosomes, CT26 cells, a murine colon cancer cell line, were treated with […] of PEG-SS-AMB, exosomes from the supernatant were separated, and secreted exosomes were quantitatively analyzed.

Procedure for exosomal PD-L1: To assess PD-L1 on EXOs isolated from mouse plasma, ELISA plates were coated with a monoclonal antibody against PD-L1 (R&D Systems, Minneapolis, MN, USA) overnight at 25° C. Free binding sites were blocked with blocking buffer for 2 h at 25° C. After washing the plates with 0.05% Tween-20 in PBS, EXOs were added to each well and incubated for 2 h at 25° C. […] The plate was incubated for 20 min with a substrate solution composed of H2O2 and tetramethylbenzidine. After the addition of a stop solution containing 2N H2SO4 (R&D Systems, DY994), the plate was immediately read at 450 nm using an xMark™ microplate reader (Bio-Rad).

Take `COc1ccccc1Oc1c(NS(=O)(=O)c2ccc(C(C)(C)C)cc2)nc(-c2ncccn2)nc1OCCO` [BST, bosentan]: the “tumor growth (tumor volume)” value with CT26 tumor (BST 10 mg/kg orally daily, FIG. 16B) is “effectively retarded”.
Turning to `CCCNS(=O)(=O)Nc1ncnc(OCCOc2ncc(Br)cn2)c1-c1ccc(Br)cc1` [MCT, macitentan], the “tumor growth (tumor volume)” value with CT26 tumor (MCT 50 mg/kg orally daily, FIG. 17B) was “effectively retarded”.
Turning to `Cc1noc(NS(=O)(=O)c2ccc(N)cc2)c1C` [SFX, sulfisoxazole], in the assay with exosomal PD-L1, the “exosomal PD-L1 levels in the plasma” value is recorded as “significantly decreased”. The “inhibition of exosome secretion compared to the untreated control group” value in the assay on CT26 cells is recorded as “more than 50%”.

These data come from patent US20250082773A1, “COMBINATION THERAPY USING EXOSOME SECRETION INHIBITOR AND IMMUNE CHECKPOINT INHIBITOR” (Research & Business Foundation SUNGKYUNKWAN UNIVERSITY, priority 2021, published 2025).
